Assay results taken from US8399452B2, “Dibenzo[b,f][1,4]oxazepin-11-yl-N-hydroxybenzamides as HDAC inhibitors” (Methylgene Inc., priority 2006, dated 2013).

Tested on: Drosophila Huntington's Disease model flies
Experiment: In Vivo Drosophila Fly Assay for Treatment of Huntington's Disease (automated climbing behavior, early/late speed effect size)
Set-up: species or system Drosophila melanogaster
Conditions: for Speed 1 to 7 (effect size, early speed): average speed days 1-7 vs DMSO-carrier control; for Speed 8 to 10 (effect size, late speed): average speed days 8-10 vs DMSO-carrier control
Description: The Drosophila Huntington's Disease assay used to screen compounds of the present invention followed that of WO 2007/002497, which is hereby incorporated by reference in its entirety.
Briefly, parental (model and driver) lines are maintained in sufficient quantities to provide virgins and males for assay crosses as well as perpetuating the lines. Disease model flies are maintained with the disease genes “silent”, functionally linked to a UAS enhancer element. The “driver” lines contain a GAL4 element under the control of a tissue-specific promoter. These are crossed together to generate the assay flies which have tissue-specific (i.e. CNS) expression of the disease gene(s).
Weekly assay crosses are set up with sufficient virgins and males to generate enough assay embryos for sorting. Approximately 50,000 males and 75,000 virgins are crossed in population cages. Embryos are collected for an eight hour window two days later. The embryos are then sorted onto 16 mm assay vials containing regular fly media and allowed to develop. Flies containing both the GAL4 driver element and the disease gene(s) are detected by the presence of GFP, a fluorescing protein. Approximately 10 assay flies eclose per vial, the optimal number for the behavioral assay. Once the flies eclose, they are transferred onto assay vials containing liquid Drosophila food. Similarly, control crosses are set up with virgins of the driver and males from a non-disease UAS line. Throughout fly production and the assay days, all flies are maintained at constant temperature and humidity, with preset light cycle, optimized for the particular lines and crosses.
Quality control (QC) for the parental lines is carried out weekly by collecting a sample of random male flies from each line. Single-fly PCR is carried out to ascertain the presence of the GAL4 or UAS element. If greater than 5% of the individuals lack the appropriate element, the assay cross is aborted. A second form of QC is also carried out to ensure that the GAL4 element is able to drive expression of a transgene. A sample of individual “driver” virgins is crossed to UAS-GFP males. Their progeny are visually checked for GFP expression in the appropriate tissues. Lack of GFP in greater than 4% of the crosses results in the assay being aborted.
Test compounds are weighed out and dissolved in DMSO at stock concentrations 100× what is desired in the assay and arrayed into 96-well master plates, including wells for DMSO-only controls and the positive control(s). A single well is reserved for a colored dye used to ensure proper orientation of compounds during drug dispensing and fly transfer. Replicate daughter plates for each day of the assay are stamped out. The plates are bar coded and stored at −20 C until used for the assay.
For a particular assay day, the plates are thawed and a robotic liquid handler is used to dilute the test compound into the liquid fly food and dispense the mixture into the assay vials. For Huntington Disease (HD) models, eight replicates per single treatment (one compound, one concentration) are dispensed. Fresh test compound treated media is made daily during an assay.
On the day the assay flies eclose (emerge from […]; assay Day 0) they are transferred to the test compound treated vials. On assay Day 1, the flies are transferred onto clean test compound treated vials one hour before assay time. They are then placed in the assay machine to acclimate to the appropriate climate conditions.
The assay machine is an environmentally-enclosed and controlled robot that can maintain user-set temperature and humidity. The machine can hold up to sixteen 96-vial racks in four quadrants, for a total of 1536 vials. There are four camera stations, which hold four vials each and a CCD camera for movie capture. […]

O=C(NO)c1cnc(N2C3CNC(C3)C2c2cc(C(F)(F)F)ccn2)nc1 (stereo not drawn)
Speed 1 to 7 (effect size, early speed) (30 uM): 0.468
Speed 8 to 10 (effect size, late speed) (30 uM): 0.087
Speed 1 to 7 (effect size, early speed) (100 uM): 0.82
Speed 8 to 10 (effect size, late speed) (100 uM): 0.82
Speed 1 to 7 (effect size, early speed) (300 uM): 0.3
Speed 8 to 10 (effect size, late speed) (300 uM): 0.54
